# Measurements taken from patent publication US6071884A, “Pharmaceutical compositions and therapeutic methods” (Kirin Beer Kabushiki Kaisha, priority 1992, dated 2000).
# Columns and labels:
# blood platelets [1] = assay: Blood-platelet-increasing effect upon normal mouse; assay type: in vivo, mouse (BDF1); conditions: normal mice; 6 days after 0.1 mg/kg i.v.; mean ± SD; vehicle per series 58.2, 63.0, 71.1
# Description: Pharmacological Test 6: Blood-Platelet-Increasing Effect upon Mouse
# An experiment was carried out by using 6 week old female BDF1 mice purchased from Japan SLC Co., Ltd., with 5 mice made one group.
# Each sample was administered to the caudal vein of the mice at a dose of 0.1 mg/kg. After 6 days, blood was collected from the fundus vein of the mice, and the number of blood platelets was measured by a sequential multi-channel hemocytometer E-2500/cs (Toa Iyo Denshi Kabushiki Kaisha). The number of blood platelets of the vehicle-administered group, and that of the sample-administered group are shown in Table 6.
# [2] = system: marrow cells (mononuclear cell fraction); assay: Proliferation-stimulating effect on marrow cell of mouse (3H-TdR uptake); assay type: cell-based, mouse (BALB/c); conditions: percentage of control, 72 h; for activity at 0.1 µg/mL: 10^-1 μg/ml; for activity at 0.01 µg/mL: 10^-2 μg/ml; for activity at 0.001 µg/mL: 10^-3 μg/ml; for activity at 1 µg/mL: 10^0 μg/ml
# Description: Pharmacological Test 1: Proliferation-Stimulating Effect on Marrow Cell of Mouse
# Marrow cells were prepared from the thigh bone of a 7 week old female BALB/c mouse purchased from Japan SLC Co., Ltd., and a mononuclear cell fraction (MNF) obtained by fractionation using a lympholyte-M (Cedar Lane, Ontario, Canada) was used in the following experiment.
# The concentration of the MNF was adjusted to 1.5×10^6 cells/ml by using 10% FCS RPMI 1640 (Nissui Pharmaceutical Co., Ltd., Tokyo, Japan) as a culture medium. 10 μl/well of a sample with a predetermined concentration and 100 μl/well of the above-prepared MNF were placed on a round-bottomed 96 well plate, and incubated under the conditions of 37° C. and 5% CO2 for 72 hours. Thereafter, 0.5 μCi/well of ^3 H-thymidine (^3 H-TDR) was added. After 8 hour incubation, the cells were harvested, and the amount of the 3H-TdR taken in the nuclei was measured by a liquid scintillation counter.
# blood platelets [3] = assay: Thrombocytopenia-inhibiting effect in X-ray-irradiated mice; assay type: in vivo, mouse (BDF1); conditions: 10 days after 5 Gy X-ray; 0.1 mg/kg i.v. within 2 h; mean ± SD; vehicle per series 10.3, 6.8, 6.7; non-treatment 68.2, 96.9, 73.0
# Description: Pharmacological Test 5: Thromboclytopenia-Inhibiting Effect
# The thrombocytopenia-inhibiting effect of each sample upon an X-ray-irradiated mouser which is one of models with a decreased number of blood platelets was examined.
# An experiment was carried out by using 6 week old female BDF1 mice purchased from Japan SLC Co., Ltd., with 6 mice made one group.
# 5 Gy of X ray was irradiated to the entire body of the mice by a Hitachi X-ray irradiator CMBR-1520R). Within 2 hours after the irradiation, each sample was administered to the caudal vein of the mice at an amount of 0.1 mg/kg.
# After 10 days, blood was collected from the fundus vein of the mice, and the number of blood platelets was measured by a sequential multi-channel hemocytometer E-2500/cs (Toa Iyo Denshi Kabushiki Kaisha). The number of blood platelets of the non-treated group, that of the medium-administered group, and that of the sample-administered group are shown in Table 5.
# [4] = Life-span-increasing effect on irradiation of a lethal dose of radiation; assay type: in vivo, mouse (BDF1); conditions: 10 mice/group, 9 Gy X-ray, 0.1 mg/kg i.v. days 0, 4, 8
# Description: Pharmacological Test 4: Life-Span-Increasing Effect on Irradiation of a Lethal Dose of Radiation
# An experiment was carried out by using 6 week old female BDF1 mice purchased from Japan SLC Co., Ltd., with 10 mice made one group.
# The entire bodies of the entire body of the mice were irradiated with 9 Gy of X-rays by using a Hitachi X-ray irradiator (MBR-1520R), and the day on which the X-ray was irradiated was referred to as "day 0".
# [5] = day 10, controls per series 10, 10, 10, 10, 10, 8
# [6] = day 15, controls per series 8, 9, 5, 5, 7, 1
# [7] = day 20, controls per series 4, 5, 1, 2, 3, 0
# [8] = day 25, controls per series 3, 3, 0, 0, 2, 0
# [9] = day 30, controls per series 1, 1, 0, 0, 0, 0
SMILES,Number of Blood Platelets (blood platelets [1]),activity at 0.1 µg/mL [2] [%],activity at 0.01 µg/mL [2] [%],activity at 0.001 µg/mL [2] [%],Number of Blood Platelets (blood platelets [3]),"Number of Surviving Mice [4, 5] [mice]","Number of Surviving Mice [4, 6] [mice]","Number of Surviving Mice [4, 7] [mice]","Number of Surviving Mice [4, 8] [mice]","Number of Surviving Mice [4, 9] [mice]","Number of Surviving Mice ([4]; day 35, all controls 0) [mice]","Number of Surviving Mice ([4]; day 40, all controls 0) [mice]",activity at 1 µg/mL [2] [%]
"CCCCCCCCCCCCCCCCCCCCCCCC[C@@H](O)C(=O)N[C@@H](CO[C@H]1O[C@H](CO)[C@H](O)[C@H](O)[C@H]1O)[C@H](O)[C@H](O)CCCCCCCCCCCCCCC [Compound 26, (2S,3S,4R)-1-(α-D-galactopyranosyloxy)-2-[(R)-2-hydroxyhexacosanoylamino]-3,4-nonadecanediol]",113.7 ± 7.1 × 10^4 /μl,271,183,156,19.8 ± 4.3 × 10^4 /μl,10,9,9,8,8,8,8,–
"CCCCCCCCCCCCCCCCCCCCCCCC(=O)N[C@@H](CO[C@H]1O[C@H](CO)[C@H](O)[C@H](O)[C@H]1O)[C@H](O)[C@H](O)CCCCCCCCCCCC(C)C [Compound 31, (2S,3S,4R)-1-(α-D-galactopyranosyloxy)-16-methyl-2-tetracosanoylamino-3,4-heptadecanediol]",108.0 ± 7.0 × 10^4 /μl,326,104,101,27.7 ± 5.4 × 10^4 /μl,10,10,9,9,9,9,9,624
"CCCCCCCCCCCCCCCCCCCC(=O)N[C@@H](CO[C@H]1O[C@H](CO)[C@H](O)[C@H](O)[C@H]1O)[C@H](O)CCCCCCCCCCCCCCC [Compound 3, (2S,3R)-1-(α-D-galactopyranosyloxy)-2-icosanoylamino-3-octadecanol]",102.0 ± 10.8 × 10^4 /μl,234,87,84,20.6 ± 4.5 × 10^4 /μl,10,9,8,8,8,8,8,–
"CCCCCCCCCCCCCCCCCC(=O)N[C@@H](CO[C@H]1O[C@H](CO)[C@H](O)[C@H](O)[C@H]1O)[C@H](O)CCCCCCCCCCCCCCC [Compound 4, (2S,3R)-1-(α-D-galactopyranosyloxy)-2-octadecanoylamino-3-octadecanol]",83.1 ± 6.5 × 10^4 /μl,297,75,151,14.3 ± 4.7 × 10^4 /μl,10,10,8,7,5,5,5,–
"CCCCCCCCCCCCCCC[C@@H](O)[C@H](CO[C@H]1O[C@H](CO)[C@H](O)[C@H](O)[C@H]1O)NC(=O)CCCCCCC [Compound 7, (2S,3R)-1-(α-D-galactopyranosyloxy)-2-octanoylamino-3-octadecanol]",76.0 ± 5.1 × 10^4 /μl,631,351,313,12.3 ± 4.0 × 10^4 /μl,10,8,6,5,5,5,5,972
"CCCCCCCCCCCCCCCCCCCCCCCC(=O)N[C@@H](CO[C@H]1O[C@H](CO)[C@H](O)[C@H](O)[C@H]1O)[C@H](O)CCCCCCCCCCCCCCC [Compound 1, (2S,3R)-1-(α-D-galactopyranosyloxy)-2-tetracosanoylamino-3-octadecanol]",112.2 ± 6.5 × 10^4 /μl,465,263,134,25.4 ± 6.8 × 10^4 /μl,10,10,10,9,9,9,9,–
"CCCCCCCCCCCCCCC[C@@H](O)[C@H](CO[C@H]1O[C@H](CO)[C@H](O)[C@H](O)[C@H]1O)NC(=O)CCCCCCCCC [Compound 6, (2S,3R)-2-decanoylamino-1-(α-D-galactopyranosyloxy)-3-octadecanol]",93.0 ± 12.1 × 10^4 /μl,391,196,71,15.4 ± 3.2 × 10^4 /μl,9,6,2,2,2,2,2,–
"CCCCCCCCCCCCCCCCCCCCCC[C@@H](O)C(=O)N[C@@H](CO[C@H]1O[C@H](CO)[C@H](O)[C@H](O)[C@H]1O)[C@H](O)[C@H](O)CCCCCCC [Compound 24, (2S,3S,4R)-1-(α-D-galactopyranosyloxy)-2-[(R)-2-hydroxytetracosanoylamino]-3,4-undecanediol]",102.6 ± 9.9 × 10^4 /μl,197,79,77,21.6 ± 7.2 × 10^4 /μl,10,9,9,9,9,9,9,576
"CCCCCCCCCCCCCC(=O)N[C@@H](CO[C@H]1O[C@H](CO)[C@H](O)[C@H](O)[C@H]1O)[C@H](O)CCCCCCCCCCCCC [Compound 10, (2S,3R)-1-(α-D-galactopyranosyloxy)-2-tetradecanoylamino-3-hexadecanol]",87.2 ± 4.0 × 10^4 /μl,356,90,77,19.6 ± 4.0 × 10^4 /μl,10,8,7,7,7,7,7,–
